Results published in ChEMBL document CHEMBL1201862, “PubChem BioAssay data set” (2004).
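The compound was tested at five concentrations on cells cultured in 96-well plates, with a 48-hour exposure period. GI50 marks 50% less growth.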 Active and inactive are the calls of the source. No stated cut-off is given here; in the data, active = GI50 up to about 1.1 µM and inactive = higher.

Key:
Test in all cases: inhibition of tumour cell growth, NCI panel, 48 h
[1] = test system: 786-0
[2] = test system: A498
[3] = test system: A549
[4] = test system: ACHN
[5] = test system: CAKI-1
[6] = test system: CCRF-CEM
[7] = test system: COLO 205
[8] = test system: DLD-1
[9] = test system: DMS-114
[10] = test system: DMS-273
[11] = test system: HCC 2998
[12] = test system: HCT-116
[13] = test system: HCT-15
[14] = test system: HL-60
[15] = test system: HOP-18
[16] = test system: HOP-62
[17] = test system: IGROV-1
[18] = test system: K562
[19] = test system: KM-20L2
[20] = test system: M14
[21] = test system: M19-MEL
[22] = test system: MOLT-4
[23] = test system: Malme-3M
[24] = test system: NCI-H226
[25] = test system: NCI-H522
[26] = test system: OVCAR-3
[27] = test system: OVCAR-4
[28] = test system: OVCAR-8
[29] = test system: RPMI-8226
[30] = test system: RXF 393
[31] = test system: SF-268
[32] = test system: SF-539
[33] = test system: SK-MEL-28
[34] = test system: SK-MEL-2
[35] = test system: SK-OV-3
[36] = test system: SN12C
[37] = test system: SNB-19
[38] = test system: SNB-75
[39] = test system: SNB-78
[40] = test system: SR
[41] = test system: SW-620
[42] = test system: TK-10
[43] = test system: U-251
[44] = test system: UACC-257
[45] = test system: UACC-62
[46] = test system: UO-31
[47] = test system: EKVX
[48] = test system: HOP-92
[49] = test system: HT-29
[50] = test system: LOX IMVI
[51] = test system: LXFL 529
[52] = test system: NCI-H23
[53] = test system: NCI-H460
[54] = test system: OVCAR-5
[55] = test system: SF-295
[56] = test system: SK-MEL-5

With CCOC(=O)CN(c1ccccc1)c1nc(=[N+](C)C)ss1 the GI50 [1] was 37.9 µM (inactive), the GI50 [2] was 42.5 µM (inactive) and the GI50 [3] was 30.4 µM (inactive). The GI50 [4] was 35.7 µM (inactive), the GI50 [5] was 50.9 µM (inactive) and the GI50 [6] was 0.979 µM (active). The GI50 [7] was 2.06 µM (inactive), the GI50 [8] was 6.93 µM (inactive) and the GI50 [9] was 0.309 µM (active). The GI50 [10] was 0.318 µM (active), the GI50 [11] was 41.1 µM (inactive) and the GI50 [12] was 5.65 µM (inactive). The GI50 [13] was 16.4 µM, the GI50 [14] was 13.1 µM (inactive) and the GI50 [15] was 53 µM (inactive). The GI50 [16] was 33 µM (inactive), the GI50 [17] was > 10 µM (inactive) and the GI50 [18] was 6.78 µM (inactive). For the same molecule, the GI50 [19] was 54.7 µM (inactive), the GI50 [20] was 32.4 µM (inactive) and the GI50 [21] was 0.303 µM (active). For the same molecule, the GI50 [22] was 1.77 µM (inactive), the GI50 [23] was 21.2 µM (inactive) and the GI50 [24] was 23.8 µM (inactive). The GI50 [25] was 0.24 µM (active), the GI50 [26] was 0.284 µM (active) and the GI50 [27] was 17.7 µM (inactive). For the same molecule, the GI50 [28] was 20 µM (inactive), the GI50 [29] was 1.19 µM (inactive) and the GI50 [30] was 10.5 µM (inactive). The GI50 [31] was 45.2 µM (inactive), the GI50 [32] was 40.1 µM (inactive) and the GI50 [33] was 26.4 µM (inactive). For the same molecule, the GI50 [34] was 19.8 µM (inactive), the GI50 [35] was 85.1 µM (inactive) and the GI50 [36] was 17.9 µM (inactive). For the same molecule, the GI50 [37] was 61.9 µM (inactive), the GI50 [38] was 29 µM (inactive) and the GI50 [39] was 32.4 µM (inactive). For the same molecule, the GI50 [40] was 0.678 µM (active), the GI50 [41] was 53.1 µM (inactive) and the GI50 [42] was 47.4 µM (inactive). For the same molecule, the GI50 [43] was 17.9 µM (inactive), the GI50 [44] was 24.3 µM (inactive) and the GI50 [45] was 26.9 µM (inactive). The GI50 [46] was 23.7 µM (inactive).

For c1ccc2c(c1)[nH]c1c[nH]c3c4cccnc4nc-3c12, the GI50 [1] was 17.1 µM (inactive), the GI50 [2] was 33.3 µM (inactive) and the GI50 [3] was 20 µM (inactive). The GI50 [4] was 11.3 µM (inactive), the GI50 [5] was 14.5 µM (inactive) and the GI50 [6] was 24.7 µM (inactive). The GI50 [7] was 15 µM (inactive), the GI50 [8] was 15.6 µM (inactive) and the GI50 [9] was 19 µM (inactive). For the same molecule, the GI50 [47] was 19.9 µM (inactive), the GI50 [11] was 19 µM (inactive) and the GI50 [12] was 17.1 µM (inactive). For the same molecule, the GI50 [13] was 15.3 µM, the GI50 [14] was 17.5 µM (inactive) and the GI50 [15] was 18.6 µM (inactive). The GI50 [16] was 29.9 µM (inactive), the GI50 [48] was 28.2 µM (inactive) and the GI50 [49] was 19.3 µM (inactive). The GI50 [17] was 18.1 µM (inactive), the GI50 [18] was 21.5 µM (inactive) and the GI50 [50] was 19.5 µM (inactive). For the same molecule, the GI50 [51] was 18.5 µM (inactive), the GI50 [20] was 15 µM (inactive) and the GI50 [21] was 16.9 µM (inactive). The GI50 [22] was 24.4 µM (inactive), the GI50 [23] was 25.6 µM (inactive) and the GI50 [24] was 25.2 µM (inactive). The GI50 [52] was 25.5 µM (inactive), the GI50 [53] was 21.5 µM (inactive) and the GI50 [26] was 17.1 µM (inactive). The GI50 [27] was 18.2 µM (inactive), the GI50 [54] was 20.3 µM (inactive) and the GI50 [28] was 17.1 µM (inactive). For the same molecule, the GI50 [29] was 25.3 µM (inactive), the GI50 [30] was 18.7 µM (inactive) and the GI50 [31] was 19.7 µM (inactive). For the same molecule, the GI50 [55] was 23.4 µM (inactive), the GI50 [32] was 21.4 µM (inactive) and the GI50 [33] was 21.2 µM (inactive). For the same molecule, the GI50 [56] was 19.4 µM (inactive), the GI50 [36] was 18.6 µM (inactive) and the GI50 [37] was 18.3 µM (inactive). The GI50 [38] was 18.2 µM (inactive), the GI50 [39] was 23.4 µM (inactive) and the GI50 [40] was 17.7 µM (inactive). The GI50 [41] was 18.1 µM (inactive), the GI50 [42] was 12.7 µM (inactive) and the GI50 [44] was 23.9 µM (inactive). For the same molecule, the GI50 [45] was 15.1 µM (inactive) and the GI50 [46] was 15.3 µM (inactive).
